A short description of data set [1]: in vitro. Particulars: rat, liver microsomes. A general note: Liver microsomes are vesicles of endoplasmic reticulum, rich in cytochrome P450 enzymes.
Description: Drug metabolism in rat liver microsomes at 1 uM after 30 mins
The nature of data set [2]: physchem. Particulars: buffer, pH 7.4.
Description: Lipophilicity, log D of the compound at pH 7.4
The nature of data set [3]: physchem. Particulars: phosphate buffered saline, pH 7.4.
Description: Solubility of the compound in phosphate buffered saline at pH 7.4
The nature of data set [4]: in vitro. The conditions noted are these: human, liver microsomes.
Description: Drug metabolism in human liver microsomes at 1 uM after 30 mins
In data set [5] the target is T1, PXR (nuclear receptor subfamily 1 group I member 2) (Homo sapiens, UniProt O75469).
T1 sequence (O75469 whole entry): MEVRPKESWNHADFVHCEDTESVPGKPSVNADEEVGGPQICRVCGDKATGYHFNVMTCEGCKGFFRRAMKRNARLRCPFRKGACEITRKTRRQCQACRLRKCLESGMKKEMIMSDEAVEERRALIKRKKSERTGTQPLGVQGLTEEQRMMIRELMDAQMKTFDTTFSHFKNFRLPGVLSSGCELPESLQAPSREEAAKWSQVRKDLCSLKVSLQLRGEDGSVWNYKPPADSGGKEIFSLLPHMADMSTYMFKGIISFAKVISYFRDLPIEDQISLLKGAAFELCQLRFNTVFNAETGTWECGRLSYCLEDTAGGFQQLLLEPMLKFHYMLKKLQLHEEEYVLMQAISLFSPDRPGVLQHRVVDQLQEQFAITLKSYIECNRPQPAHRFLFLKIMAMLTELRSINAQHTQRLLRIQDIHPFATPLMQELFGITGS
As to the kind of experiment: in vitro.
Description: Inhibition of human PXR assessed as activity remaining at 2 uM relative to rifampicin

Data set [6] deals with T2, Phosphatidylinositol 4,5-bisphosphate 3-kinase catalytic subunit beta isoform (Homo sapiens, UniProt P42338).
T2 sequence (P42338 whole entry, canonical isoform): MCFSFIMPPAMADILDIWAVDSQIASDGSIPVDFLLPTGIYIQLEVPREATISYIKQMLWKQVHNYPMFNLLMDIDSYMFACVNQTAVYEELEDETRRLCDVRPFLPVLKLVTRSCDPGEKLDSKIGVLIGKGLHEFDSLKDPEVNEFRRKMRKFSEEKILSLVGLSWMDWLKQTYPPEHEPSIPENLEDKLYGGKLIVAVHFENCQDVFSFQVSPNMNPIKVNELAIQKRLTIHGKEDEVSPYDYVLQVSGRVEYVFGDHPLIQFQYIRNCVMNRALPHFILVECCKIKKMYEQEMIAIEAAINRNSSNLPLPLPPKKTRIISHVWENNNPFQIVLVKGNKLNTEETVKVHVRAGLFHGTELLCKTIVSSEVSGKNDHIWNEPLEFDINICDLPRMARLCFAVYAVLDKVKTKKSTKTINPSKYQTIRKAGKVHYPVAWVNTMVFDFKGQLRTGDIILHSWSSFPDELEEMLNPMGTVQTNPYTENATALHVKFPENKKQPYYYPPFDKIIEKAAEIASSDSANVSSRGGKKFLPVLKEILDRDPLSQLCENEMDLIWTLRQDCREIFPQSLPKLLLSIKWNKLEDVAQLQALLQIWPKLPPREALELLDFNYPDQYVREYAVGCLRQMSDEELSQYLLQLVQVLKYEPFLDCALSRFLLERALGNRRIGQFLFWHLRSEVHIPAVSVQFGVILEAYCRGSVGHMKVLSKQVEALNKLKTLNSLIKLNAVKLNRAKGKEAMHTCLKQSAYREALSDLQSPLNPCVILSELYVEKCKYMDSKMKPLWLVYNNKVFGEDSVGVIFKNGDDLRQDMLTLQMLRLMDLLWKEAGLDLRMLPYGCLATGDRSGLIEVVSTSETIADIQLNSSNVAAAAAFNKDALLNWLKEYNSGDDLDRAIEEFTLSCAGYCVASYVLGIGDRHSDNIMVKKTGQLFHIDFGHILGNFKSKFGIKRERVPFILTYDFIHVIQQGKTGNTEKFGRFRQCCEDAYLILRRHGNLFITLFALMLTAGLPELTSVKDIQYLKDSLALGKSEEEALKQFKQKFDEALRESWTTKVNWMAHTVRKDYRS
Description: Inhibition of PI3Kbeta using phosphatidylinositol-4,5-bisphosphate by ATP bioluminescence assay
The target of data set [7] is T2, Phosphatidylinositol 4,5-bisphosphate 3-kinase catalytic subunit beta isoform. This is another data set of the same source.
Description: Inhibition of PI3Kbeta-mediated AKT Ser473 phosphorylation in human MDA-MB-468 cells after 120 mins by meso scale discover assay
In data set [8] the target is Phosphatidylinositol 4,5-bisphosphate 3-kinase catalytic subunit gamma isoform (Homo sapiens, UniProt P48736).
Phosphatidylinositol 4,5-bisphosphate 3-kinase catalytic subunit gamma isoform, sequence (P48736 whole entry, canonical isoform): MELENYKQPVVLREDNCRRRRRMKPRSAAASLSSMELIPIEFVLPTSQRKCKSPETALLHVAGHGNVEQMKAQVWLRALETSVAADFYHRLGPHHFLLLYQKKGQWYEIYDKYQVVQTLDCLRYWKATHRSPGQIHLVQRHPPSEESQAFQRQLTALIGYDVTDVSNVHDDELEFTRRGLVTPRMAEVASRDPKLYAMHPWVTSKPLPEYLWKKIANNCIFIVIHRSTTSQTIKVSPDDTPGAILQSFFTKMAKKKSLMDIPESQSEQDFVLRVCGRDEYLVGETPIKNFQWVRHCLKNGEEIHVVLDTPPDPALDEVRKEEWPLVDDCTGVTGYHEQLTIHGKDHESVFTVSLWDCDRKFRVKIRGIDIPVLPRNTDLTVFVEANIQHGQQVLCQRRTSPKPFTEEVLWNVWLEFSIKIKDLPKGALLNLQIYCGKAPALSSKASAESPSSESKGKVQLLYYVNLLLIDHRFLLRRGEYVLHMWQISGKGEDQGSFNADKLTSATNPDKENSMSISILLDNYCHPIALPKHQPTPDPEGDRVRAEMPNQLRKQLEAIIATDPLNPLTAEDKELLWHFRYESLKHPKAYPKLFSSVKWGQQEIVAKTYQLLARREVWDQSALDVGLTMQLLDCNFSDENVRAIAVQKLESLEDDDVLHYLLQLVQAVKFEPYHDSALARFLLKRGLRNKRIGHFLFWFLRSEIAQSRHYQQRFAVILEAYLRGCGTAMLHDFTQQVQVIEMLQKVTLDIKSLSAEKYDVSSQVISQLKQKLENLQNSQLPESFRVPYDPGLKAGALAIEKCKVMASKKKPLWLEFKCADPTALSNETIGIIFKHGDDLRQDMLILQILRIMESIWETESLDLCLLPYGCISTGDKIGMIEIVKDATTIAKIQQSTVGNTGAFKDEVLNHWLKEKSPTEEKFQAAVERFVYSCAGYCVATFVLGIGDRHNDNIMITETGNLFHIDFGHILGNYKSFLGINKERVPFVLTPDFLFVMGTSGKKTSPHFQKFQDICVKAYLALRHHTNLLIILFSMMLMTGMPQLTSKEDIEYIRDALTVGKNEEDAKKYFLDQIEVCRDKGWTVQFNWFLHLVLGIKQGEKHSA
Description: Inhibition of PI3Kgamma by ATP bioluminescence assay
Data set [9] addresses T3, Phosphatidylinositol 4,5-bisphosphate 3-kinase catalytic subunit delta isoform (Homo sapiens, UniProt O00329).
T3 sequence (O00329 whole entry): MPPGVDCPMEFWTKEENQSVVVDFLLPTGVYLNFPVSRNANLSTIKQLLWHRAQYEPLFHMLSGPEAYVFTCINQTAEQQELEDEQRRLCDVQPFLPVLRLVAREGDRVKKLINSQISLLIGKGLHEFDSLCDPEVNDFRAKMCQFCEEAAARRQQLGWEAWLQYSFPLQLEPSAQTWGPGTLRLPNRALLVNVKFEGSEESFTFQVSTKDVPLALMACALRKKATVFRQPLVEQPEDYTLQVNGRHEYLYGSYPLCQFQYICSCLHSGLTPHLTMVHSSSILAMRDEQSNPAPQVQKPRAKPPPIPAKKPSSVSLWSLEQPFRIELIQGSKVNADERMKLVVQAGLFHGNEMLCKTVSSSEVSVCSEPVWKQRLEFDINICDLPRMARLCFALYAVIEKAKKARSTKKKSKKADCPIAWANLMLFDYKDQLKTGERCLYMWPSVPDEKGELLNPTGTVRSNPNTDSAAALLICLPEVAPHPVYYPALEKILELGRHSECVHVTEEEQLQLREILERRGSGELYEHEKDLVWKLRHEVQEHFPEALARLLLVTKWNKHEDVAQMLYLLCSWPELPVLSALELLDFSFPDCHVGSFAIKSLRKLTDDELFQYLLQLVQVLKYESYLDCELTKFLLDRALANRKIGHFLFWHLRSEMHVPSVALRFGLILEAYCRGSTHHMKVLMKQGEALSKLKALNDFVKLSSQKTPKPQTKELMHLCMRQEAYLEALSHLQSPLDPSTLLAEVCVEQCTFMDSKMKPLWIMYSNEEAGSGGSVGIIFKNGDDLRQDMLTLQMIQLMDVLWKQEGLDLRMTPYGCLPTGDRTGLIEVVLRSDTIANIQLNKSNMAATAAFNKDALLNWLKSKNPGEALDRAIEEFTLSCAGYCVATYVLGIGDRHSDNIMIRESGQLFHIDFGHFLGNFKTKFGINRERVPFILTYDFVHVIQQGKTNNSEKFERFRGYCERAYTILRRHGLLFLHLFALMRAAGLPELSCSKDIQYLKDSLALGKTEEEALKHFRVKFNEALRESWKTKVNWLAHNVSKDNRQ
Description: Inhibition of PI3Kdelta using phosphatidylinositol-4,5-bisphosphate by ATP bioluminescence assay

Data set [10] addresses Phosphatidylinositol 4,5-bisphosphate 3-kinase catalytic subunit alpha isoform (Homo sapiens, UniProt P42336).
Description: Inhibition of PI3Kalpha by ATP bioluminescence assay
A short description of data set [11]: in vivo. Particulars: Sprague-Dawley, rat, iv, 0.5 mg/kg.
Description: Volume of distribution at steady state in Sprague-Dawley rat at 0.5 mg/kg, iv
Data set [12] in a line: in vivo. The conditions noted are these: Sprague-Dawley, rat, iv, 0.5 mg/kg. The source holds these as a separate data set.
Description: Half life in Sprague-Dawley rat at 0.5 mg/kg, iv
The nature of data set [13]: in vivo. Particulars: Sprague-Dawley, rat, iv, 0.5 mg/kg. The source holds these as a separate data set.
Description: Clearance in Sprague-Dawley rat at 0.5 mg/kg, iv
Data set [14] can be described thus: in vivo. The conditions noted are these: Sprague-Dawley, rat, po, 2 mg/kg.
Data set [15] in a line: in vivo. The conditions noted are these: Sprague-Dawley, rat, plasma, po, 2 mg/kg.

pIC50, pKi: −log10 of the molar value. In brackets after ≈: the same amount, converted by molar mass. Bounds are passed on as bounds.

What is called logD is the decadic logarithm of the distribution of all forms, ionised or not, between an organic phase and buffer at a given pH. Higher therefore signals a more lipophilic compound. What is called solubility is how much of the substance goes into solution per volume. A higher solubility goes with much dissolved substance. By pIC50 is commonly meant the negative decadic logarithm of the IC50, by convention in mol/L. A word on the pKi: it is the negative decadic logarithm of the Ki, by convention in mol/L. The low end stands for a high Ki, the high end for a low Ki. Usually Vd stands for a proportionality between amount in the body and measured concentration, not a real space. High values mean wide distribution into tissue, low ones little distribution into tissue. Broadly, the half-life is the time in which the quantity being followed falls by half. Read a high half-life as slow decline. By clearance is commonly meant the volume of plasma or blood freed of the substance per unit of time. A word on the bioavailability: it is the share of a dose that reaches the circulation, judged against a reference dose that is usually intravenous. Low values mean poor availability, high ones good availability. What is called AUC is concentration integrated over time.

Phosphatidylinositol 4,5-bisphosphate 3-kinase catalytic subunit alpha isoform, sequence (P42336 whole entry, canonical isoform): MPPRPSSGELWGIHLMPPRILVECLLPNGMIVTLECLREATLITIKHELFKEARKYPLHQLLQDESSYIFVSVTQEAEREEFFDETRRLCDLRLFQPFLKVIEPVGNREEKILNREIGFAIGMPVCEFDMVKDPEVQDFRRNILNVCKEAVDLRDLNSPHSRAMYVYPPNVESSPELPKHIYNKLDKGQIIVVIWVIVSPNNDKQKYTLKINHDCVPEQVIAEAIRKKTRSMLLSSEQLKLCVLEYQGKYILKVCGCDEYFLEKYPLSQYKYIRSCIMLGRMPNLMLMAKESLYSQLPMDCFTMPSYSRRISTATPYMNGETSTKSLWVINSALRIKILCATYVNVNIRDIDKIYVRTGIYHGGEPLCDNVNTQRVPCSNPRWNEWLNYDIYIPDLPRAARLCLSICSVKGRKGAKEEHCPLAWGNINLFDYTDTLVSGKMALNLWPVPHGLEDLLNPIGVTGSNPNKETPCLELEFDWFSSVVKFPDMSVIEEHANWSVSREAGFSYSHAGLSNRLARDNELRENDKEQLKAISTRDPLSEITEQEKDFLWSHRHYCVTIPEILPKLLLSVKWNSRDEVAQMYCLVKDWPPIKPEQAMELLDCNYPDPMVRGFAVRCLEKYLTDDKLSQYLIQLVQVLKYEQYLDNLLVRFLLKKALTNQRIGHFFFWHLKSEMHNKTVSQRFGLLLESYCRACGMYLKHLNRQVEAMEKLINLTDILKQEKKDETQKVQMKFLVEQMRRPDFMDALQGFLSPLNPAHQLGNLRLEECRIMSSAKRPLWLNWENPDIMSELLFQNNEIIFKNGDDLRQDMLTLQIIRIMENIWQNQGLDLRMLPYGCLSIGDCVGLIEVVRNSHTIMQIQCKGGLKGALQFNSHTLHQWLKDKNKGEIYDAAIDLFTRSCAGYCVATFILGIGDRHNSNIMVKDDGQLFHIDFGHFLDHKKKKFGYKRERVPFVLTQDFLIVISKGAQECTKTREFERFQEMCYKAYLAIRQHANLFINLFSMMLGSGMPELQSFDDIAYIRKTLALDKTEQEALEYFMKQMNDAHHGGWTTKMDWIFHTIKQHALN

For the compound `Cc1c(-c2ccccn2)nc2cc(F)ccc2c1N1CC(C)(C)c2ccc(N3CCOCC3)cc21`, the metabolised at 0.5 h, 1 µM was found to be 34% in data set [1] and 40% in data set [4]. In addition, the pH-dependent lipophilicity (logD) in data set [2] amounted to 4.5. Moreover, the solubility in [3] amounted to 7.4 µg/mL (≈ 15.8 µM). For the same compound, in [5], the activity at 2 µM is 106%. In addition, the negative-log IC50 (pIC50) was 7.24 in data set [6], 7.28 in [7] and 5.70 in data set [8].
Regarding `Cc1c(-c2ccccn2)nc2cccc(F)c2c1N1CC(C)(C)c2ccc(N3CCOCC3)cc21`, the metabolised at 0.5 h, 1 µM in data set [1] is 49%; in [4], 52%. Further, in data set [3], the solubility is 5.2 µg/mL (≈ 11.1 µM). Further, the activity at 2 µM in data set [5] was 104%. Besides, the pIC50 in data set [6] was 6.14; in data set [9], 7.14.
For the compound `Cc1nc2ccccc2c(N2CC3(CCOCC3)c3ccc(N4CCOCC4)cc32)c1C`, the metabolised at 0.5 h, 1 µM in [1] turned out to be 71%; in [4], 70%. Besides, the activity at 2 µM in data set [5] amounted to 1%. In addition, the negative-log IC50 (pIC50) was 7.27 in data set [6] and 6.35 in [9].
Turning to `Cc1c(-c2ccccc2)nc2ccccc2c1N1CC2(CCOCC2)c2ccc(N3CCOCC3)cc21`, the figures for the metabolised at 0.5 h, 1 µM in data set [1] and in [4] were 46% and 62%, respectively. Further, the solubility in [3] was 3.2 µg/mL (≈ 6.51 µM). Moreover, the activity at 2 µM in data set [5] came out at 103%. The negative-log IC50 (pIC50) in [6] was 6.98; in data set [9] it was 7.04.
`Cc1c(-c2ccccn2)nc2cc(F)ccc2c1N1CC2(CCOCC2)c2ccc(N3CCOCC3)cc21`: the metabolised at 0.5 h, 1 µM in data set [1] is 13%; in [4], 64%. The activity at 2 µM in data set [5] worked out at 22%. Besides, the pIC50 in data set [6] was 6.84; in data set [9], 7.19.
Regarding `Cc1c(-c2ccccn2)nc2cc(F)ccc2c1N1CC2(CS(=O)(=O)C2)c2ccc(N3CCOCC3)cc21`, the pKi was 6.40 in [6], under 4.90 in data set [10] and 5.13 in [8].
The like results for `Cc1c(-c2ccccn2)nc2cc(F)ccc2c1N1CC(CO)(CO)c2ccc(N3CCOCC3)cc21` were, in that order, 6.57, under 3.90 and 4.80.
Turning to `Cc1c(-c2ccccn2)nc2cc(F)ccc2c1N1CC(C)(C)c2ccc(-c3ccncc3)cc21`, the negative-log IC50 (pIC50) in [6] is 7.09; in [8], 5.85.
`Cc1c(-c2ccccn2)nc2cc(F)ccc2c1N1CC(C)(C)c2ccc(-c3ccnc(N)n3)cc21` showed a Vd in data set [11] of 7.5 L/kg. Further, in data set [12], the half-life is 6.1 h. In addition, the negative-log Ki (pKi) in data set [6] was 7.27; in data set [8] it was 7.05. This compound also had a clearance in [13] of 26.8 mL/min/kg.
For the compound `Cc1cc(-c2ccc3c(c2)N(c2c(C)c(-c4ccccn4)nc4cc(F)ccc24)CC3(C)C)nc(N)n1`, the pKi in data set [6] was under 3.90; in data set [10] it was under 3.90; in [8], 6.44.
Turning to `Cc1c(-c2ccccn2)nc2cc(F)ccc2c1N1CC(C)(C)c2ncc(N3CCOCC3)cc21`, the metabolised at 0.5 h, 1 µM in [1] was found to be 28%; in data set [4] it was 47%. Further, the Vd in [11] was found to be 5 L/kg. In addition, the bioavailability in data set [14] amounted to 47%. In addition, the half-life in data set [12] is 6.2 h. For the same compound, the solubility in [3] was determined as 11 µg/mL (≈ 23.4 µM). The activity at 2 µM in [5] was 22%. Moreover, the negative-log Ki (pKi) in data set [6] was 7.52; in data set [9], 8.15; in [10], 5.76; in [8] it was 7.04. This compound also gave a clearance in data set [13] of 16.2 mL/min/kg. In data set [7], this compound showed a pIC50 of 7.29. In addition, the AUC in [15] came out at 2 µM·h.
Regarding `Cc1c(-c2ccccn2)nc2cc(F)ccc2c1N1CC(C)(C)c2ncc(-c3ccnc(N)n3)cc21`, the metabolised at 0.5 h, 1 µM in data set [1] came out at 34%; in [4], 12%. The compound further displayed a solubility in data set [3] of 17 µg/mL (≈ 35.6 µM). Moreover, in data set [5], the activity at 2 µM turned out to be 65%. Moreover, the pKi is 7.74 in [6] and 7.55 in data set [8]. The compound also gave a pIC50 in data set [7] of 8.00.
`Cc1nc2ccccc2c(N2CC(C)(C)c3ccc(N4CCOCC4)cc32)c1C`: the metabolised at 0.5 h, 1 µM in data set [1] came out at 94%; in [4] it was 65%. For the same compound, in [3], the solubility was determined as 1 µg/mL (≈ 2.58 µM). Besides, the activity at 2 µM in [5] stood at 14%. Also, the pIC50 in data set [6] is 7.22; in data set [9], 6.44; in data set [10], 4.39; in [8] it was 4.74.
On to `Cc1nc2ccc(Cl)cc2c(N2CC(C)(C)c3ccc(N4CCOCC4)cc32)c1C`, for which the values for the metabolised at 0.5 h, 1 µM in data set [1] and in data set [4] were 84% and 54%, respectively. Moreover, the solubility in data set [3] came to 1 µg/mL (≈ 2.37 µM). Also, the activity at 2 µM in data set [5] amounted to 17%. In [6], this compound showed a negative-log IC50 (pIC50) of 7.22.
As for `Cc1c(-c2ccccc2)nc2ccccc2c1N1CC(C)(C)c2ccc(N3CCOCC3)cc21`, the metabolised at 0.5 h, 1 µM came out at 57% in [1] and 42% in [4]. In addition, the solubility in data set [3] was 2.4 µg/mL (≈ 5.34 µM). The activity at 2 µM in data set [5] stood at 197%. For the same compound, the values for the pIC50 in data set [6] and in [9] were 7.23 and 7.07, respectively.
On to `Cc1c(-c2ccccc2F)nc2ccccc2c1N1CC(C)(C)c2ccc(N3CCOCC3)cc21`, for which the results for the metabolised at 0.5 h, 1 µM in data set [1] and in data set [4] were 52% and 47%, respectively. For the same compound, in data set [3], the solubility was determined as 1 µg/mL (≈ 2.14 µM). Also, the activity at 2 µM in data set [5] was 162%. The pIC50 is 7.46 in data set [6] and 7.33 in data set [9].
